Assay [1] concerns TNFα-induced NF-κB activation. Conditions: Pierce et al., 1997; cited from earlier work.
The subject of the next assay is IκB phosphorylation. Conditions: Pierce et al., 1997; cited from earlier work.
Another assay concerns HT-29 xenografts. Kind of assay: Subcutaneous colon cancer xenograft in athymic mice. The class given is in vivo. Conditions: for tumor volumes, treatment group compared with control group: HT-29 subcutaneous tumors, 1 mg/kg twice weekly for 28 days, vs DMSO. As to the method: (§1) DLD-1, HCT-116, and HT-29 cells were cultured for 6 days in soft agar in the presence of DMSO (control), 10 μM BAY 11-7082, or 10 μM BAY 11-7085. The data points represent the means of colony counts per field (20×) performed in 5 different regions of the culture dishes. The data shown represent a typical result of two separate experiments. FIGS. 2B,C, show athymic mice received subcutaneous injections of HT-29 (B) or HCT-116 (C) cells, followed by […] of BAY 11-7085 (dark bars) or DMSO (white bars) intraperitoneally twice weekly. The bars represent the 25-75% ranges of the tumor volumes and the horizontal lines in the bars are the medians. Using the Kruskal-Wallace statistical test to compare the median tumor volumes between BAY 11-7085 and DMSO yielded a p-value of 0.005 for HT-29 cells but >0.05 for HCT-116 cells.
HT-29 and HCT-116 cells were harvested in 0.25% trypsin-PBS-EDTA, washed once in media and PBS, and resuspended in PBS at 1 million cells per 200 μL. One million cells were injected either subcutaneously in the backs or intraperitoneally in 5 week old female nu/nu athymic mice (Charles River Labs). For the mice with subcutaneous tumors, the tumors were allowed to establish themselves for 10 days after which they were randomized to BAY 11-7085 or DMSO. For the mice with intraperitoneal tumors, the mice received DMSO or BAY 11-7085 (5 mg/kg) 24 hours before the cancer cells were injected intrapentoneally. All mice received BAY 11-7085 (5 mg/kg) or an equal volume of DMSO (˜200 μL) twice weekly for 21-32 days. Subcutaneous tumor sizes were determined by measuring the length and width with calipers. These studies were approved by the U. of Utah Institutional Review Board and Institutional Animal Care and Use Committee and performed in the Animal Resource Center. Mice were euthanized when they experienced a greater than 10% loss in body weight or if they appeared ill. Post-mortem examinations included sectioning of kidney, lung, and liver tissues which were stained with hematoxylin and eosin followed by examination for tissue toxicity/damage by an experienced mouse pathologist (E.J.E.) who was blinded to therapy.
(Wang et al., 1999) However, BAY 11-7082 or BAY 11-7085 alone inhibit colon cancer xenograft growth in athymic mice. HC-116, and HT-29 cell lines were used to generate subcutaneous tumors in athymic female mice. The mice were subsequently randomized to be treated with vehicle (DMSO) alone or BAY 11-7085 1 mg/kg twice weekly for 28 days.

A further assay relates to DLD-1 cells. Kind of assay: Soft agar colony formation assay (anchorage-independent proliferation). The class given is cell-based. The conditions noted are these: 10 μM, 6 days in soft agar. As to the method:
as §1
(§2) Anchorage-independent cell growth is a hallmark of cancer cells and is a good correlate to tumorigencity in vivo. Therefore, the effects of BAY 11-7082 and BAY 11-7085 were examined on colon cancer cell growth using the soft agar colony formation assay.

A further assay deals with HT-29 cells. The description is as above. Type of assay: cell-based. Conditions: 10 μM, 6 days in soft agar. As to the method:
as §1, §2

Assay [2] has as its system transiently suspended HT-29 cells. Kind of assay: Apoptosis (annexin V) of transiently suspended cells allowed to readhere. Type of assay: cell-based. As to the method:
HT-29 cells that were either transiently suspended with trypsin-EDTA or adherent for three days, were treated at time zero with DMSO or 10-100 μM BAY 11-7085. The percent of apoptotic cells was determined using the annexin V flow cytometry assay and graphed versus the dose of BAY 11-7085. […] The cells were fixed and immunostained with an NF-κB p65 subunit monoclonal antibody.
The transiently suspended cells were lysed and allowed to bind to DNA oligonucleotides, containing the NF-κB consensus binding site, that were immobilized to 96-well plates. NF-κB protein bound to the oligonucleotides was detected by an antibody to the p65 subunit that only recognized p65 that is bound to DNA. The positive control was HeLa cells that were stimulated with TNFα A control was performed using excess free NF-κB oligonucleotides (Competitor). […] NF-κB binding activity was determined by the TransAM assay as in FIG. 5A. […] The data shown represent typical results of three separate experiments. […] An immunoblot for COX-2 was performed.
The percentage of apoptotic cells was determined using the annexin V assay. The data points represent the averages of three experiments; bars, ±SE. E. DLD-1 and F. HT-29 cells were transduced with an adenovirus containing the IκB super-repressor construct. After 3 days, the cells were transiently suspended and allowed to readhere in the presence of subapoptotic concentrations of BAY 11-7085 or DMSO (vehicle) for 8 h. The data are expressed as fractions of cells surviving compared with the controls (no adenovirus) and were quantitatively determined by staining the remaining adherent cells with crystal violet.
Single cell suspensions were plated at 100,000 cells per well in 24-well plates in media containing DMSO, BAY 11-7082, BAY 11-7085, or MG-132 for 8-24 hours in an incubator. Alternatively, DMSO, BAY 11-7082, BAY 11-7085, or MG-132 were added to cells that were confluent and adherent for several days. The nonadherent cells were aspirated off with the media and spun for 3 minutes at 2,000 rpm in 15 ml polypropylene tubes. The adherent cells were washed twice with PBS, dispersed in trypsin, and spun down for 3 minutes at 2,000 rpm in 15 ml polypropylene tubes. The nonadherent and adherent cells were resuspended in 1× binding buffer (10 mM HEPES/NaOH, pH 7.4, 140 mM NaCl, and 2.5 mM CaCl2) to a final concentration of 10^6 cells/ml. 100 μl of the cell solution were transferred to a 5 ml culture tube and incubated with 5 μl of annexin V-FITC-conjugated monoclonal antibody (Pharmingen) and 10 μl of propidium iodide (from a 50 μg/ml stock solution made in PBS) in the dark at 25° C. for 15 minutes. 400 μl of binding buffer was added to each tube and the cells were analyzed by flow cytometry immediately. The percent of apoptosis was determined as the percent of annexin V-positive, propidium iodide-negative cells of the total cells counted.
Various concentrations of BAY 11-7085 were added to HT-29 cells that were transiently suspended in trypsin-PBS for approximately 15 minutes before replating. The transiently suspended cells were quickly allowed to readhere in order to prevent anoikis. Alternatively, BAY 11-7085 was added to adherent HT-29 cell monolayers.

“Also recorded” adds a separate entry of the source. Where only a bound is given, the exact number is not on record here.

For `Cc1ccc(S(=O)(=O)/C=C/C#N)cc1` [BAY 11-7082, (2E)-3-(tolysulfonyl)-2-propenenitrile], in assay [1], the “effect on TNFα-induced NF-κB activation” value was “inhibit”. Moreover, the “effect on IκB phosphorylation” value in the assay on IκB phosphorylation was “inhibit”. In addition, the “tumor volumes, treatment group compared with control group” value with HT-29 xenografts is reported as “reduce tumor volumes”. For the same compound, the “inhibition of anchorage-independent proliferation” value (“inhibition” for short) with DLD-1 cells and with HT-29 cells was “significantly inhibited” each time. The “share of transiently suspended, readhering cells that became apoptotic” value in assay [2] (HT-29) is listed as “vast majority”.
For `CC(C)(C)c1ccc(S(=O)(=O)/C=C/C#N)cc1` [BAY 11-7085, (2E)-3-[4-(tertiarybutylphenyl)sulfonyl]-2-propenenitrile], in assay [1], the “effect on TNFα-induced NF-κB activation” value is reported as “inhibit”. The “effect on IκB phosphorylation” value with IκB phosphorylation is given as “inhibit”. Further, the “p-value, Kruskal-Wallace test of median tumor volumes vs DMSO” value in the assay on HT-29 xenografts (HT-29, intraperitoneally twice weekly) came out at 0.005. In addition, in the assay on HT-29 xenografts (1 mg/kg), the “tumor volumes, treatment group compared with control group” value is recorded as “statistically significant overall reduction in the tumor volumes; also recorded: reduce tumor volumes”. Besides, the “inhibition” value in the assay with DLD-1 cells was “significantly inhibited”. Moreover, in the assay on HT-29 cells, the “inhibition” value is given as “significantly inhibited”. For the same compound, in assay [2] (HT-29), the “in vitro apoptotic threshold during readhesion” value was greater than 20 µM and the “share of transiently suspended, readhering cells that became apoptotic” value is recorded as “vast majority”. Besides, in assay [2] (HT-29, transiently suspended, treated, allowed to readhere 8 hours), the “BAY 11-7085-induced apoptosis during readhesion” value was “showed the same propensity for BAY 11-7085-induced apoptosis”. Also, the “apoptosis of transiently suspended cells” value in assay [2] (HT-29 suspended in trypsin about 15 minutes then replated, 10-100 μM) is recorded as “caused a significant increase in apoptosis”.

The record behind these values is patent US7989495B2, “Compositions and methods for inhibiting NF-κB mediated tumorigenicity and adhesion dependent survival of cancer cells” (University of Utah Research Foundation, priority 2002, dated 2011).
